How the values were obtained:
[1] = Mouse plasma pharmacokinetics after subcutaneous administration; type: in vivo; details: 30 mg/kg subcutaneous
Method: (§1) Pharmacokinetic analysis of plasma samples was performed at GVK BIO Sciences Pvt. Ltd. (Hyderabad, India). The pharmacokinetic properties of compound 18a were determined by subcutaneous administration in male C57BL/6 mice. A 30 mg/kg dose was formulated as a solution in 23% hydroxypropyl-beta-cyclodextrin (HPBCD; w/v) in water. The dose volume was 3 mL/kg. Serial blood samples were collected at 0.5, 1, 2, 4, 6, 8 and 24 h post dosing (n = 3). Plasma concentration of compound 18a was determined by a LC–MS/MS method. Chromatography was performed on a reverse phase column (Kinetex EVO, C18, 50 × 4.6 mm, 5 µ) at a flow rate of 1 mL/minute, using a gradient-elution method. Mobile Phase A was a 10 mM ammonium acetate solution with 0.1% formic acid in water, whereas mobile phase B was a mixture of acetonitrile and methanol (50:50). The gradient started at 5% B ramped up to 95% B over 1 min, held at 95% B for 1.2 min, and then ramped down to 5% B over 0.1 min, and held at 5% B for 1.2 min. The mass spectrometer was operated in positive-ionization mode and Telmisartan was used as internal standard. Analyst software was used for the data acquisition and chromatographic-peak integration. The Cmax, Tmax, AUC and half-life value (t1/2) were determined using standard non-compartmental pharmacokinetic methods. The concentration of compound 18a in liver and lung tissue was determined by LC–MS/MS at Eurofins (Vergeze, France). Tissues harvested at the endpoint of the efficacy study (day 28 for liver, day 21 for lung), 2 h post the last compound 18a dose, were processed. Around 250 mg of the lateral right liver lobe (n = 3) and ~ 120 mg of the caudal right lung lobe (n = 4) were homogenized in water and precipitated in acetonitrile containing Irbesartan as internal standard. Further analysis was performed via a similar method as described above. Data are expressed as mean ± sem.
Pharmacokinetic parameters were calculated from plasma concentration-time data in male C57BL/6 mice (n=3). Cmax is reported as the mean ± SD.

hCCR5 = molecular target: T1, hCCR5 (Homo sapiens, UniProt P51681); assay: Ca2+ mobilization assay, U87.CD4.CCR5 cells, CCL5-induced; type: cell-based; details: antagonism of CCL5 response
T1 construct: expressed in transfected cells; host or cells: U87.CD4.CCR5
T1 sequence (P51681 whole entry): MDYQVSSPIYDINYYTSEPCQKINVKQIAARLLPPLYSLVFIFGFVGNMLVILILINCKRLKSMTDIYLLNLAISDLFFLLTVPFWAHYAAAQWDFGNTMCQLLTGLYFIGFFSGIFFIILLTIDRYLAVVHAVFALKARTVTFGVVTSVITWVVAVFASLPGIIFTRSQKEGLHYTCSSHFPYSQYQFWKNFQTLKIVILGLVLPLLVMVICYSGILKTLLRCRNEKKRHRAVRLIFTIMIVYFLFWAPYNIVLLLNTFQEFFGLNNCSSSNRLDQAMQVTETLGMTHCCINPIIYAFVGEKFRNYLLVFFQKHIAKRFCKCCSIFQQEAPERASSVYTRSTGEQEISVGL
Method: The calcium (Ca^2+) mobilization assay was described in detail before. Briefly, U87.CD4.CXCR4 or U87.CD4.CCR5 cells (2 × 10^4 cells per well in DMEM/10% FBS/0.01 M HEPES) were seeded in gelatin-coated (Sigma-Aldrich; 0.1% gelatin in DPBS) black-walled 96-well plates and incubated overnight at 37 °C and 5% CO2. The next day, cells were loaded with the fluorescent Ca^2+ indicator Fluo-2 acetoxymethyl (AM) ester (4 μM final concentration; Abcam) and incubated at RT in the dark for 45 min. Then, cells were washed with assay buffer (see above) and subsequently incubated with different concentrations of compound for ~ 10 min prior to addition of 6.25 nM CXCL12 (in case of CXCR4) or 6.4 nM CCL5 (in case of CCR5). Fluctuations in intracellular Ca^2+ levels were measured in real time by the FLIPR Tetra® device (Molecular Devices) in all 96 wells simultaneously. The response (Relative Light Units, RLUs) over baseline was calculated (ScreenWorks 4.0® software, Molecular Devices) by dividing the RLUs by a base line value measured just before addition of CXCL12 or CCL5, respectively. Inhibition of the Ca^2+ response was determined taking into account negative (i.e., untreated cells without stimulation) and positive (i.e., untreated cells stimulated with either CXCL12 or CCL5) control samples.

[2] = Compound concentration in liver and lung tissue homogenates (LC-MS/MS); type: in vivo, mouse; details: mean ± sem
Method: as §1, with “Analyst software was used for the data acquisition and chromatographic-peak integration.” left out, “Tissues harvested at the endpoint of the efficacy study (day 28 for liver, day 21 for lung), 2 h post the last compound 18a dose, were processed. Around 250 mg of the lateral right liver lobe (n = 3) and ~ 120 mg of the caudal right lung lobe (n = 4) were homogenized in water and precipitated in acetonitrile containing Irbesartan as internal standard. Further analysis was performed via a similar method as described above.” left out

[3] = system: CCl4-induced liver fibrosis in C57BL/6J mice; assay: CCl4-induced liver fibrosis model; type: in vivo, mouse; details: 15 mg/kg/dose SC BID
Method: A preclinical mouse model for CCl4-induced liver fibrosis was performed at the Department of Metabolic Health Research, The Netherlands Organisation for Applied Scientific Research (TNO) (Leiden, The Netherlands). Fifty-two male C57BL/6J mice were matched on body weight prior to the study and divided into five groups (experimental study design, Supplementary Figure S1a). Starting at day 0, 10–12-week-old mice were intraperitoneally (i.p.) injected (three times a week) with mineral oil (group 1) or CCl4 (15% v/v in mineral oil, group 2–5) for a total of 28 days. At day 0, mice received subcutaneous treatment with compound 18a (15 mg/kg/dose, twice daily (BID), group 3), or corresponding vehicle control (23% HPBCD, twice daily (BID), groups 1 and 2)], or received daily gavage with either an ALK5/ALK4 kinase inhibitor [SM 16 (45 mg/kg/dose, PO, QD, group 5) or its corresponding vehicle control (β-cyclodextrin sulfobutyl ether sodium salt or captisol, PO, QD, group 4)]. Plasma samples were collected by a tail vein bleed at day 7. At day 28, mice were sacrificed using CO2 and additional plasma samples and liver lobes were collected. As a primary endpoint collagen surface area was determined on cross-sections of the lateral left lobe by picro sirius red (PSR) staining. As a secondary endpoint collagen content (hydroxyproline) of the left median lobe was analyzed using a chromogenic assay according to the manufacturer’s instructions (QuickZyme Biosciences, Leiden, The Netherlands).

[4] = mouse, sc, male C57BL/6 mice, plasma

## CCc1ccn2ccnc2c1N1CCCN(C(CC(N)=O)C2CCN(C(=O)C3CC4CCC3O4)CC2)CC1 (centres unmarked) [compound 18a]
[1]; below target at 24 h
  time after administration for which plasma levels exceeded the target value (5.2 ng/mL): up to 8 h
[1]; [4]
  AUC: 6700 ng·h/mL
  Tmax: 0.25 h
  half-life: 5.2 h
[1]; mouse, sc, male C57BL/6 mice, plasma, mean ± SD, n=3
  Cmax: 6120 ng/mL
hCCR5
  IC50: > 40 µM
[2]; day 21, 2 h after last subcutaneous dose (15 mg/kg BID), n=4
  concentration in lung tissue: 1703 ± 54 ng/g tissue
[2]; day 28, 2 h after last subcutaneous dose (15 mg/kg BID), n=3
  concentration in liver tissue: 2528 ± 511 ng/g tissue
[3]; CCl4-treated mice, day 28
  liver weight per body weight: not affected by compound 18a treatment
[3]; day 28, vs CCl4 + 23% HPBCD, P = 0.04
  collagen levels by PSR staining: modestly, but significantly, reduced collagen levels
[3]; day 28, vs CCl4 + 23% HPBCD, P = 0.06
  hydroxyproline levels in liver: near significant reduction of hydroxyproline levels
